The text below walks through data of patent US20240174690A1, “ANNULATED 2-AMINO-3-CYANO THIOPHENES AND DERIVATIVES FOR THE TREATMENT OF CANCER” (BOEHRINGER INGELHEIM INTERNATIONAL GMBH, priority 2021, published 2024).

Data set [1] concerns KRAS G12D-dependent Ba/F3 cells. Put plainly: Ba/F3 proliferation assay, KRAS G12D. It counts as cell-based. The following applies: Mus musculus, BaF3, 72 h, AlamarBlue. The method, boiled down: (§1)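 Transforming KRAS G12 mutants replaced IL-3 dependence in retrovirally engineered Ba/F3 cells, with puromycin omitted about ten days before testing. Growth under compound was quantified with an AlamarBlue fluorescent viability stain, in duplicate, by curve fitting.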

For data set [2], the system named is KRAS G12V-dependent Ba/F3 cells. Nature of the data set: Ba/F3 proliferation assay, KRAS G12V.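 Further: proliferation IC50 in KRAS G12V-dependent Ba/F3 cells read by AlamarBlue.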 It counts as cell-based. Conditions: Mus musculus, BaF3, 72 h, AlamarBlue. The method, boiled down: as §1
Another data set has as its system SAS cells. Put plainly: SAS CTG proliferation assay (120 h) (HNSCC, wt amplified). It counts as cell-based. The method, boiled down: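 SAS cells plated at 300 per well in DMEM:F12 with 10% FCS and left overnight, then given compounds acoustically. After 120 h exposure, viability read by CellTiter-Glo as percent of DMSO control. IC50 from four-parameter non-linear regression.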

Data set [3] can be described thus: Metabolic (microsomal) stability assay, human liver microsomes (HLM). The format is in vitro ADME. Conditions: predicted clearance as percent of liver blood flow, 1 μM. An outline of the steps: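 LC-MS/MS tracked parent disappearance at 0, 5, 15, 30 and 60 min in NADPH-initiated incubations with 1 mg/mL human microsomal protein and 1 μM compound at 37°C, pH 7.5. First-order fits gave intrinsic clearance, which was scaled up and reported as % QH. NADPH-free controls were also run.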

The nature of data set [4]: Plasma protein binding assay (PPB), equilibrium dialysis, 10% FCS in PBS. It counts as in vitro ADME. Conditions: bovine, read-out: PPB 10% FCS (% fu). An outline of the steps: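 Equilibrium dialysis (5-10 kg/mol cut-off membrane) of 1-10 μmol/L test compound in 10% FCS/PBS against PBS with or without dextran, 3-5 h at 37° C. Compound in each chamber quantified by LC-MS after protein precipitation; fu calculated from Cserum and Cbuffer.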
A general note: In equilibrium dialysis free small molecules cross a membrane that holds back macromolecules.

SMILES strings stand for the structures.

On to `C[C@H](Oc1cc(N2CCN(C)C3(CCOC3)C2)nc(-c2noc3c2CCC[C@@]32CCCc3sc(N)c(C#N)c32)n1)[C@@H]1C[C@@H](F)CN1C` (some centres unmarked) [II-151], for which the IC50 (usually the concentration at which inhibition is half-maximal) in data set [1] stood at 53 nM; in data set [2] it was 655 nM; in the data set with SAS cells it was 161 nM. Moreover, in data set [3], the “HLM QH” value is reported as 59%. Further, the fraction unbound in data set [4] was 0.24.
Take `C[C@H](Oc1cc(-n2cc3ccn(C[C@H]4CCOC4)c(=O)c3n2)nc(-c2noc3c2CCC[C@@]32CCCc3sc(N)c(C#N)c32)n1)[C@@H]1CCCN1C` [II-204]: the results for the IC50 (in data set [1]; in data set [2]; with SAS cells) were 62 nM, 7 nM and 17 nM, respectively. Besides, the “HLM QH” value in data set [3] was less than 24%. Moreover, the fraction unbound in data set [4] came out at 0.03.
Take `C[C@H](Oc1cc(-n2ccc(C3(O)COC3)n2)nc(-c2noc3c2CCC[C@@]32CCCc3sc(N)c(C#N)c32)n1)[C@@H]1CCCN1C` [II-189]: the IC50 in data set [1] was found to be 28 nM; in data set [2], 8 nM; in the data set with SAS cells, 51 nM. The “HLM QH” value in data set [3] is given as less than 24%. Moreover, in data set [4], the fraction unbound is 0.16.
For `CO[C@H]1CCN(C)[C@@H]1[C@H](C)Oc1cc(-n2ccc(C(=O)N(C)C3COC3)n2)nc(-c2noc3c2CCC[C@@]32CCCc3sc(N)c(C#N)c32)n1` [II-199], in that order: 16 nM, 3 nM, 17 nM, 67% and 0.07.
The corresponding values for `C[C@H](Oc1cc(-n2nccc2-c2ccncc2)nc(-c2noc3c2CCC[C@@]32CCCc3sc(N)c(C#N)c32)n1)[C@@H]1CCCN1C` [II-131] are 145 nM, 19 nM, 623 nM, less than 24% and 0.01.
For `CO[C@H]1CCN(C)[C@@H]1[C@H](C)Oc1cc(-n2ccc(C(=O)N[C@@H]3CCOC3)n2)nc(-c2noc3c2CCC[C@@]32CCCc3sc(N)c(C#N)c32)n1` [II-197], in that order: 6 nM, 1 nM, 8 nM, 69% and 0.04.
`C[C@H](Oc1cc(-n2ccc(C(=O)N[C@@H]3CCOC3)n2)nc(-c2noc3c2CCC[C@@]32CCCc3sc(N)c(C#N)c32)n1)[C@@H]1CCCN1C` [II-192]: the IC50 came to 13 nM in data set [1], 2 nM in data set [2] and 25 nM in the data set on SAS cells. The “HLM QH” value in data set [3] was 30%. In data set [4], the fraction unbound was found to be 0.24.
Turning to `C[C@@H]1CN(c2nc(-c3noc4c3CCC[C@@]43CCCc4sc(N)c(C#N)c43)nc(O[C@@H](C)[C@@H]3C[C@@H](F)CN3C)c2F)CC2(CC2)N1` [II-158], the results for the IC50 (in data set [1]; in data set [2]; with SAS cells) were 24 nM, 108 nM and 585 nM, respectively. Also, the “HLM QH” value in data set [3] was 73%. In data set [4], the fraction unbound is 0.04.
For `C[C@H](Oc1cc(-n2ccc(-c3cn(C4CCOCC4)nn3)n2)nc(-c2noc3c2CCC[C@@]32CCCc3sc(N)c(C#N)c32)n1)[C@@H]1CCCN1C` [II-210], in that order: 23 nM, 2 nM, 14 nM, less than 24% and 0.02.
For `C[C@H](Oc1cc(-n2cncn2)nc(-c2onc3c2CCC[C@@]32CCCc3sc(N)c(C#N)c32)n1)[C@@H]1CCCN1C` [I-18], in that order: 22 nM, 8 nM, 72 nM, 48% and 0.61.
The corresponding values for `CO[C@H]1CCN(C)[C@@H]1[C@H](C)Oc1cc(N2CCN(C)C3(CC3)C2)nc(-c2noc3c2CCC[C@@]32CCCc3sc(N)c(C#N)c32)n1` [II-186] are 12 nM, 321 nM, 532 nM, 49% and 0.08.
Regarding `C[C@H](Oc1cc(-n2ccc(-c3cn(CC4(C)COC4)nn3)n2)nc(-c2noc3c2CCC[C@@]32CCCc3sc(N)c(C#N)c32)n1)[C@@H]1CCCN1C` [II-213], the IC50 in data set [1] was 43 nM; in data set [2], 6 nM; with SAS cells, 13 nM. Moreover, the “HLM QH” value in data set [3] is less than 24%. In addition, the fraction unbound in data set [4] stood at 0.02.
As to `COCCNC(=O)c1ccn(-c2cc(O[C@@H](C)[C@@H]3[C@@H](OC)CCN3C)nc(-c3noc4c3CCC[C@@]43CCCc4sc(N)c(C#N)c43)n2)n1` [II-200], the results for the IC50 (in data set [1]; in data set [2]; in the data set on SAS cells) were 8 nM, 1 nM and 8 nM, respectively. Moreover, the “HLM QH” value in data set [3] is given as 65%. Besides, in data set [4], the fraction unbound was 0.03.
Take `C[C@H](Oc1cc(N2CC3COCC(C2)N3)nc(-c2noc3c2CCC[C@@]32CCCc3sc(N)c(C#N)c32)n1)[C@@H]1CCCN1C` [II-160]: the IC50 in data set [1] was 429 nM; in data set [2] it was 2010 nM; in the data set on SAS cells, 821 nM. In addition, the “HLM QH” value in data set [3] was 31%. Besides, the fraction unbound in data set [4] came to 0.53.
In the case of `C[C@H](Oc1nc(-c2noc3c2CCC[C@@]32CCCc3sc(N)c(C#N)c32)nc(N2CCNC3(CC3)C2)c1F)[C@@H]1C[C@@H](F)CN1C` [II-155], the IC50 is 6 nM in data set [1], 185 nM in data set [2] and 471 nM in the data set with SAS cells. The “HLM QH” value in data set [3] is recorded as 70%. In addition, the fraction unbound in data set [4] was determined as 0.04.
For `C[C@H](Oc1cc(C2=CCNCC2)nc(-c2noc3c2CCC[C@@]32CCCc3sc(N)c(C#N)c32)n1)[C@@H]1CCCN1C` [II-164], in that order: 66 nM, 133 nM, 1500 nM, less than 24% and 0.54.
The corresponding values for `C[C@H](Oc1cc(N2CCNC3(CC3)C2)nc(-c2noc3c2CCC[C@@]32CCCc3sc(N)c(C#N)c32)n1)[C@@H]1C[C@@H](F)CN1C` [II-165] are 3 nM, 121 nM, 437 nM, 61% and 0.16.
The corresponding values for `COCCNC(=O)c1ccn(-c2cc(O[C@@H](C)[C@@H]3CCCN3C)nc(-c3noc4c3CCC[C@@]43CCCc4sc(N)c(C#N)c43)n2)n1` [II-195] are 14 nM, 2 nM, 37 nM, 44% and 0.24.
For the compound `C[C@H](Oc1cc(-n2cnc(C(=O)N(C)C)c2)nc(-c2noc3c2CCC[C@@]32CCCc3sc(N)c(C#N)c32)n1)[C@@H]1CCCN1C` [II-126], the figures for the IC50 (in data set [1]; in data set [2]; with SAS cells) were 211 nM, 26 nM and 189 nM, respectively. Also, the “HLM QH” value in data set [3] was 25%. In addition, the fraction unbound in data set [4] is 0.38.
As to `C[C@H](Oc1cc(-n2cc3c(n2)CNC3)nc(-c2noc3c2CCC[C@@]32CCCc3sc(N)c(C#N)c32)n1)[C@@H]1CCCN1C` [II-168], the IC50 in data set [1] is 27 nM; in data set [2] it was 26 nM; with SAS cells, 441 nM. Moreover, the “HLM QH” value in data set [3] is recorded as 62%. In data set [4], the fraction unbound was 0.47.
For `C[C@H](O)Cn1ncc(-c2cc(O[C@@H](C)[C@@H]3CCCN3C)nc(-c3noc4c3CCC[C@@]43CCCc4sc(N)c(C#N)c43)n2)n1` [II-134], the results for the half-maximal inhibitory concentration (IC50) (in data set [1]; in data set [2]; in the data set with SAS cells) were 1170 nM, 28 nM and 35 nM, respectively. Also, in data set [3], the “HLM QH” value was 34%. For the same compound, in data set [4], the fraction unbound stood at 0.31.
With `CO[C@H]1CCN(C)[C@@H]1[C@H](C)Oc1cc(-n2ccc(C(=O)N[C@H]3CCOC3)n2)nc(-c2noc3c2CCC[C@@]32CCCc3sc(N)c(C#N)c32)n1` [II-198], the IC50 worked out at 4 nM in data set [1], 1 nM in data set [2] and 8 nM in the data set with SAS cells. The “HLM QH” value in data set [3] was 63%. Besides, the fraction unbound in data set [4] was 0.06.
For `C[C@H](Oc1cc(-n2cc3ccn([C@H]4CCOC4)c(=O)c3n2)nc(-c2noc3c2CCC[C@@]32CCCc3sc(N)c(C#N)c32)n1)[C@@H]1CCCN1C` [II-202], in that order: 56 nM, 6 nM, 21 nM, less than 24% and 0.05.
The corresponding values for `CO[C@@H]1C[C@@H]([C@H](C)Oc2cc(N3CCNC4(CC4)C3)nc(-c3noc4c3CCC[C@@]43CCCc4sc(N)c(C#N)c43)n2)N(C)C1` [II-187] are 3 nM, 225 nM, 1150 nM, 46% and 0.14.
The corresponding values for `C[C@H](Oc1cc(-n2ccc(-c3cnccn3)n2)nc(-c2noc3c2CCC[C@@]32CCCc3sc(N)c(C#N)c32)n1)[C@@H]1CCCN1C` [II-130] are 45 nM, 6 nM, 176 nM, less than 24% and 0.03.
